According to patent US20240141374A1, “ON DEMAND EXPRESSION OF EXOGENOUS FACTORS IN LYMPHOCYTES” (priority 0001, published 2024):

B1: AGT103: Vector encoding inhibitory RNA sequences targeting CCR5 and HIV Vif/Tat with EF-1α promoter (SEQ ID NO: 78) (nucleic acid)
DNA: CCGGTGCCTAGAGAAGGTGGCGCGGGGTAAACTGGGAAAGTGATGTCGTGTACTGGCTCCGCCTTTTTCCCGAGGGTGGGGGAGAACCGTATATAAGTGCAGTAGTCGCCGTGAACGTTCTTTTTCGCAACGGGTTTGCCGCCAGAACACAGGTAAGTGCCGTGTGTGGTTCCCGCGGGCCTGGCCTCTTTACGGGTTATGGCCCTTGCGTGCCTTGAATTACTTCCACGCCCCTGGCTGCAGTACGTGATTCTTGATCCCGAGCTTCGGGTTGGAAGTGGGTGGGAGAGTTCGAGGCCTTGCGCTTAAGGAGCCCCTTCGCCTCGTGCTTGAGTTGAGGCCTGGCCTGGGCGCTGGGGCCGCCGCGTGCGAATCTGGTGGCACCTTCGCGCCTGTCTCGCTGCTTTCGATAAGTCTCTAGCCATTTAAAATTTTTGATGACCTGCTGCGACGCTTTTTTTCTGGCAAGATAGTCTTGTAAATGCGGGCCAAGATCTGCACACTGGTATTTCGGTTTTTGGGGCCGCGGGCGGCGACGGGGCCCGTGCGTCCCAGCGCACATGTTCGGCGAGGCGGGGCCTGCGAGCGCGGCCACCGAGAATCGGACGGGGGTAGTCTCAAGCTGGCCGGCCTGCTCTGGTGCCTGGCCTCGCGCCGCCGTGTATCGCCCCGCCCTGGGCGGCAAGGCTGGCCCGGTCGGCACCAGTTGCGTGAGCGGAAAGATGGCCGCTTCCCGGCCCTGCTGCAGGGAGCTCAAAATGGAGGACGCGGCGCTCGGGAGAGCGGGCGGGTGAGTCACCCACACAAAGGAAAAGGGCCTTTCCGTCCTCAGCCGTCGCTTCATGTGACTCCACGGAGTACCGGGCGCCGTCCAGGCACCTCGATTAGTTCTCGAGCTTTTGGAGTACGTCGTCTTTAGGTTGGGGGGAGGGGTTTTATGCGATGGAGTTTCCCCACACTGAGTGGGTGGAGACTGAAGTTAGGCCAGCTTGGCACTTGATGTAATTCTCCTTGGAATTTGCCCTTTTTGAGTTTGGATCTTGGTTCATTCTCAAGCCTCAGACAGTGGTTCAAAGTTTTTTTCTTCCATTTCAGGTGTCGTGATGTACAAGGTATATTGCTGTTGACAGTGAGCGACTGTAAACTGAGCTTGCTCTACTGTGAAGCCACAGATGGGTAGAGCAAGCACAGTTTACCGCTGCCTACTGCCTCGGACTTCAAGGGGCTTCCCGGGCATCTCCATGGCTGTACCACCTTGTCGGGGGATGTGTACTTCTGAACTTGTGTTGAATCTCATGGAGTTCAGAAGAACACATCCGCACTGACATTTTGGTATCTTTCATCTGACCAGCTAGCGGGCCTGGCTCGAGCAGGGGGCGAGGGATTCCGCTTCTTCCTGCCATAGCGTGGTCCCCTCCCCTATGGCAGGCAGAAGCGGCACCTTCCCTCCCAATGACCGCGTCTTCGTC
modifications: misc_feature 1..1469 AGT103
B2: 3BNC117: human IgG1 monoclonal antibody targeting the CD4 binding site on HIV gp160; expressed in cells from vector AGT112 (protein)
chain 1: MYRMQLLSCIALSLALVTQVQLLQSGAAVTKPGASVRVSCEASGYNIRDYFIHWWRQAPGQGLQWVGWINPKTGQPNNPRQFQGRVSLTRHASWDFDTFSFYMDLKALRSDDTAVYFCARQRSDYWDFDVWGSGTQVTVSSASTKGP
chain 2: MYRMQLLSCIALSLALVTDIQMTQSPSSLSASVGDTVTITCQANGYLNWYQQRRGKAPKLLIYDGSKLERGVPSRFSGRRWGQEYNLTINNLQPEDIATYFCQVYEFVVPGTRLDLKRTVAAP
modifications: constant regions lack entries; misc_feature 1..441 3BNC117 Heavy Variable Chain (with IL-2 secretory signal); misc_feature 1..369 3BNC117 Light Variable Chain (with IL-2 secretory signal)
notes: expressed in cells from vector AGT112

Legend:
HIV NL43-GFP [1] = test: HIV NL43-GFP infection of CD8-depleted, CD3/CD28-stimulated PBMC transduced with lentiviral vector encoding 3BNC117 (Example 3); type: cell-based; details: day six, FIG. 6
Excerpt: Method: On day 0, PBMC were depleted of CD8+ T cells and then stimulated with TransAct (CD3/CD28 beads) (MiltenyiBiotec). On day 1, the PBMC were transduced with a lentiviral vectors expressing the broadly neutralizing antibody (bNAb) against HIV (SEQ ID NO:4; AGT112). The components of the vectors are described in Table 2. The AGT112 vector (SEQ ID NO: 4) contains a CMV promoter (SEQ ID NO: 13) that drives expression of a 3BNC117 antibody sequence that contains an IL-2 secretory sequence (SEQ ID NO: 74 (3BNC117 heavy variable chain (with IL-2 secretory sequence)) and SEQ ID NO: 75 (3BNC117 light variable chain (with IL-2 secretory sequence)). The IL-2 secretory sequence is SEQ ID NO: 11.
On day two (2), the PBMC were then infected with HIV NL43-GFP. On day three, cells were washed three times. On day six, HIV-infected GFP positive cells were measured. This protocol is shown in FIG. 5 but here LV-3BNC117 was substituted for LV-VRC01.

HIV NL43-GFP [2] = test: HIV NL43-GFP infection of PBMC transduced with sCD4 lentiviral vectors (Example 4); type: cell-based; details: columns NL43+sCD4 / NL43-sCD4-Ig / NL43-Saquinavir
Excerpt: Method: On day 0, PBMC were depleted of CD8+ T cell and then stimulated with TransAct (CD3/CD28 beads) (MiltenyiBiotec). On day 1, PBMC were transduced with lentiviral vectors expressing sCD4 (SEQ ID NO: 8 (AGT116) and SEQ ID NO: 10 (AGT117)).
The components of the vectors are described in Table 2. The AGT116 vector (SEQ ID NO: 8) contains a sCD4 sequence (SEQ ID NO: 7) and an EF-1α promoter (SEQ ID NO: 14) upstream of the sCD4 sequence. The AGT117 vector (SEQ ID NO: 10) contains a sCD4-IgG1 Fc sequence (SEQ ID NO: 9) and an EF-1α promoter (SEQ ID NO: 14) upstream of the sCD4-IgG1 Fc sequence.
On day 2, the PBMC were infected with HIV NL43-GFP. On day 3, the cells were washed three times. Cells were then […]. On day 6, HIV-infected GFP positive cells were measured.

[3] = test system: HIV recombinant strain NL43 that expresses GFP; test: HIV NL43-GFP infection of primary CD4 T cells transduced with AGT111 at various MOI (Example 7); type: cell-based; details: 200 nM saquinavir
Procedure: Method: CD4 T cells were separated by negative selection and stimulated for 1 day with TransAct (CD3/CD28 beads) (Miltenyi Biotec) plus IL-2 (30 U/mL) (Thermo Fisher Scientific) and then transduced with lentivirus vector AGT111 (SEQ ID NO: 2) at various MOI.
One day later, cells were infected with 1 MOI of HIV recombinant strain NL43 that expresses GFP. […] As a control, HIV infected cells were treated with 200 nM saquinavir. At the end of the culture, cells were collected and analyzed by flow cytometry for GFP expression and with an APC anti-CD4 antibody. If the CD4 cell expresses GFP, it was infected by HIV.

[4] = test system: HIV recombinant strain NL43 that expresses GFP; test: HIV NL43-GFP infection of primary CD4 T cells transduced with AGT103 or AGT118 (Example 17); type: cell-based
Excerpt: Method: CD4 T cells were separated by negative selection and stimulated for 1 day with TransAct (CD3/CD28 beads) (Miltenyi Biotec) plus IL-2 (30 U/mL) (Thermo Fisher Scientific) and then transduced with lentivirus AGT103 (SEQ ID NO: 78) or AGT118 (SEQ ID NO: 80) at a MOI of 5. The AGT103 vector (SEQ ID NO: 78) contains an EF-1α promoter (SEQ ID NO: 14) that drives expression of the miR30-CCR5/miR21-Vif/mir185-Tat microRNA cluster sequence (SEQ ID NO: 65) (miR30-CCR5/miR21-Vif/miR185-Tat microRNA cluster sequence). The miR30-CCR5 sequence is SEQ ID NO: 62. The miR21-Vif sequence is SEQ ID NO: 63. The miR185-Tat sequence is SEQ ID NO: 64. The AGT118 vector (SEQ ID NO: 80) contains an EF-1α promoter (SEQ ID NO: 14) that drives expression of sCD4(D1+D2)-IgG1 Fc (SEQ ID NO: 9) and the miR30-CCR5/miR21-Vif/miR185-Tat microRNA cluster sequence (SEQ ID NO: 65).
One day later, cells were infected with 1 MOI of HIV recombinant strain NL43 that expresses GFP. After 24 hours, CD3/CD28 beads, lentivirus and HIV were removed by washing 3 times with PBS and cultured in RPMI 1640 medium (Thermo Fisher Scientific) containing 10% FBS (Gemini Bio) and 1% Pen-Strep (Thermo Fisher Scientific) with IL-2 (30 U/mL) in a 37° C. incubator at 5% C02 for 7 days with medium supplementation as needed. At the end of the culture, cells were collected and analyzed by flow cytometry. […]

[5] = test system: HIV Gag-specific CD4 T cells; test: Antibody (IgG Fc) expression by HIV Gag-specific CD4 T cells after peptide stimulation (Example 5); type: cell-based, human; details: for cells positive for IgG Fc: MOI 5
Procedure: Method: To measure antibody expression by HIV Gag-specific CD4 T cells, HIV positive human peripheral blood mononuclear cells (PBMCs) were separated with Ficoll-Paque PLUS (GE Healthcare, Cat: 17-1440-02). Separated PBMCs (1×10^7) were stimulated with PepMix™ HIV (GAG) Ultra (Cat: PM-HIV-GAG, JPT Peptide Technologies) in 1 mL medium in a 24-well plate for 18 hours. CD8 T, γδ, NK, and B cells were depleted with PE labeled specific antibodies and anti-PE microbeads. The negatively selected cells were cultured at 2×10^6/mL in TexMACS GMP medium (Cat: 170-076-309, Miltenyi Biotec) containing IL7 (170-076-111, Miltenyi Biotec), IL15 (170-076-114, Miltenyi Biotec) and saquinavir (Cat: 4658, NIH AIDS Reagent Program). The lentivirus vector AGT111 (SEQ ID NO: 2) encoding anti-HIV antibody VRC01 or AGT112 (SEQ ID NO: 4) encoding anti-HIV antibody 3BNC117 was added 24 hours later at a multiplicity of infection (MOI) of 5.
Fresh medium containing IL7, IL15, and saquinavir was added every 2-3 days during cell expansion. The starting concentration of IL7 and IL15 was 10 ng/mL. On day 12-16, 2-3×10^6 cells were collected for peptide stimulation. The intracellular expression of IFNγ and IgG Fc was detected with a PE anti-IFNγ antibody and an APC anti-IgG1 Fc antibody (Biolegend).

| Molecule | GFP positive cells (HIV NL43-GFP [1]; NY025 donor) | GFP positive cells (HIV NL43-GFP [1]; NY026 donor) | percent of GFP positive cells (HIV NL43-GFP [2]; FIG. 8A bottom row) | percent of GFP positive cells (HIV NL43-GFP [2]; FIG. 8B bottom row) | percentage of GFP positive cells ([3]; day 5) | percentage of GFP positive cells ([3]; day 7) | percentage of GFP positive cells ([3]; day 9) | cells HIV positive ([4]; primary CD4 T cells, MOI of 5) | decrease in HIV infection ([4]; vs control treated cells) | increase in fluorescence intensity of IgG relative to DMSO treated cells ([5]; Gag PepMix vs DMSO) | cells positive for IgG Fc ([5]; stimulation with Gag PepMix on day 12) | cells positive for IgG Fc ([5]; treated with DMSO (no peptide)) |
| --- | --- | --- | --- | --- | --- | --- | --- | --- | --- | --- | --- | --- |
| CC(C)(C)NC(=O)[C@@H]1C[C@@H]2CCCC[C@@H]2CN1C[C@@H](O)[C@H](Cc1ccccc1)NC(=O)[C@H](CC(N)=O)NC(=O)c1ccc2ccccc2n1 [Saquinavir, saquinavir] | 0.025% | 2.43E-3% | 0.017% | 0.026% | 0.19% | 0.22% | 0.24% |  |  |  |  |  |
| B1 |  |  |  |  |  |  |  | 0.86% | 75.6% |  |  |  |
| B2 | 1.79% | 0.30% |  |  |  |  |  |  |  | approximately 10 fold | 1.58% | 0.13% |
